Results: patent US10894036B2, “Use of marizomib for the treatment of central nervous system (CNS) cancers” (Celgene International II Sàrl, priority 2016, dated 2021)
“And” between values parts separate entries of the source, which are not always exact repeats. Identical values can stand only once. Like-named read-outs stand apart in the source and are kept apart here.

Experiments:
[1] = target: T1, caspase-like (C-L) proteasome activity (Homo sapiens, UniProt P28072); assay: Proteasome inhibition in packed whole blood: C-L; assay type: in vivo; settings: PWB post-Marizomib infusion (peak effect)
T1 construct: Change in proteasome activities in packed whole blood (PWB) lysates and peripheral blood mononuclear cell (PBMC) lysates; from tissue; host or cells: packed whole blood lysates of dosed glioma patients
Description: The drugs were infused on 28-Day Cycles.
Change in proteasome activities in packed whole blood (PWB) lysates and peripheral blood mononuclear cell (PBMC) lysates, comparing pre-drug and post drug levels on Days 1, 8, and 15 of Cycle 1; Days 1 and 15 of each Cycle thereafter; and at the End-of Treatment Visit.
The laboratory correlates include assessment of the percentage inhibition of proteasome function (evaluated by measurement of CT-L, T-L and C-L activity in blood isolates such as whole blood and PBMC lysates.
PD analysis will include change in proteasome activities (whole blood lysates and PBMC lysates) by comparing pre-drug and post drug levels on Days 1, 8, and 15 (i.e., for each dose) of Cycle 1 and Days 1 and 15 (i.e., for the first and last doses) of each cycle thereafter.

20S Proteasome = assay: 20S proteasome activity (% inhibition) in rodent brain; assay type: in vivo, mouse
[2] = Quantitative whole body autoradiography: distribution to brain; assay type: in vivo, rat; settings: rats
Description: The definition of marizomib is understood to include marizomib as well as pharmaceutically acceptable salts, prodrugs, solvates, hydrates, tautomers, or isomers thereof. In specific embodiments, the term marizomib refers to Compound 1 or a pharmaceutically acceptable salt thereof. Without wishing to be bound by theory, marizomib is a proteasome inhibitor with unique features compared to other proteasome inhibitors. For example, marizomib inhibits all three catalytic activities of the proteasome and is capable of crossing the blood brain barrier (BBB). […] Radiolabeled marizomib has shown 30% CNS biodistribution compared with blood levels in rats. Marizomib can elicit a significant anti-tumor effect in a rodent model of malignant glioma.

clinical = settings: human
Description: Blood samples will be taken for peak and trough measurements, pre-dose and immediately prior to (end of infusion) EOI, on Cycle 1 Day 1. On Cycle 1 Day 15 full PK sampling will be done: pre-dose, immediately prior to EOI and then 2, 5, 15, 30, 45, 60, 90 and 120 minutes post infusion. The following PK parameters will be estimated by non-compartmental analysis:
Non-compartmental analyses will be performed. […] Blood concentrations and computed PK parameters for MRZ will be listed and summarized by cohort (mean, geometric mean, standard deviation, coefficient of variation, minimum, maximum and number of observations).
For MRZ samples will be obtained before treatment and just prior to end of infusion on Cycle 1 Day 1. On Cycle 1 Day 15, MRZ blood samples will be obtained before treatment, just prior to end of infusion, and 2, 5, 15, 30, 45, 60, 90, and 120 minutes after the infusion. Every effort should be made to collect samples at the prescribed times, but deviations up to 10% of the time point are allowed. […] After blood collection, neutralizing solution must be added.

recurrent glioma = settings: cited from earlier work; for 6 mo OS / 6 mo PFS / 9 mo OS / 9 mo PFS: BEV monotherapy
[3] = tumor-bearing mouse, IV, individual mice 1 and 2
[4] = tumor-bearing mouse, IV, individual mice 1 and 2, NE = No Effect, listed as MRZ
[5] = tumor-bearing mouse, IV, individual mice 1 and 2, listed as MRZ
[6] = whole blood, intravenous, 0.7 mg/m2
[7] = whole blood, intravenous, 0.8 mg/m2
[8] = BELOB Trial, BEV monotherapy (Taal et al., 2014)
[9] = BELOB trial BEV monotherapy arm (Taal et al., 2014)
[10] = Heiland (Freiburg, Germany), All Pts
[11] = Heiland (Freiburg, Germany), Methylated
[12] = Heiland (Freiburg, Germany), Unmethylated MGMT promoter
[13] = Taal (BELOB), Unmethylated MGMT promoter
[14] = Wick (EORTC 26101 P2), Methylated
[15] = Wick (EORTC 26101 P2), Unmethylated MGMT promoter

For `C[C@@]12OC(=O)[C@]1([C@@H](O)[C@@H]1C=CCCC1)NC(=O)[C@@H]2CCCl` [marizomib], the inhibition at […]2 ([1]; 0.55 mg/m^2) was 21 ± 7.8%, the inhibition at 0.7 mg/m2 ([1]; 0.7 mg/m^2) was 50.4 ± 9.1% and the inhibition at 0.8 mg/m2 ([1]; 0.8 mg/m^2) was 51.9 ± 8.3%. For the same compound, the “proteasome activity in brain” value (20S Proteasome; mouse) was “inhibits proteasome activity”, the “CT-L activity in brain” value (20S Proteasome; tumor-bearing mouse) was “inhibits CT-L activity in brain” and the “20S Proteasome Activity (% Inhibition), Blood, Peak (2 hr)” value (20S Proteasome; [3]) was 99%. For the same compound, the “20S Proteasome Activity (% Inhibition), Blood, Trough” value (20S Proteasome; [3]) was 87%, the “20S Proteasome Activity (% Inhibition), Brain, Peak (2 hr)” value (20S Proteasome; [4]) was 94% and 98% and the “20S Proteasome Activity (% Inhibition), Brain, Trough” value (20S Proteasome; [4]) was 52% and 41%. The “20S Proteasome Activity (% Inhibition), Tumor, Peak (2 hr)” value (20S Proteasome; [5]) was 56% and 77%, the “20S Proteasome Activity (% Inhibition), Tumor, Trough” value (20S Proteasome; [5]) was 15% and 0% and the “distribution to brain relative to plasma Cmax” value ([2]; quantitative whole body autoradiography) was about 30%. For the same compound, the “CNS biodistribution compared with blood levels” value ([2]; radiolabeled marizomib) was 30%, the Cmax (clinical; blood, iv, 0.7 mg/m2) was 64.9 ± 1.73 ng/mL and the Cmax (clinical; blood, iv, 0.8 mg/m2) was 26.5 ± 7.92 ng/mL. It also gave a Tmax (clinical; [6]) of 11.3 min, a half-life (clinical; [6]) of 32 min and an AUC(0-t) (clinical; [7]) of 4.05 ng·h/mL. It also gave a Cmax (clinical; [7]) of 26 ± 8 ng/mL, a Tmax (clinical; [7]) of 0 min and a half-life (clinical; [7]) of 7.6 ± 0.9 min. It also gave a Tmax (clinical; whole blood, intravenous, […]2) of 4 min, a half-life (clinical; whole blood, intravenous, […]2) of 8.8 ± 0.8 min and an AUC(0-t) (clinical; whole blood, iv, 0.7 mg/m2) of 3.22 ng·h/mL. The Tmax (clinical; whole blood, iv, 0.7 mg/m2) was 21.3 min, the Vd (clinical; whole blood, iv, 0.7 mg/m2) was 48.3 ± 16.1 L and the half-life (clinical; whole blood, iv, 0.7 mg/m2) was 16 ± 8.08 min. For the same compound, the AUC(0-t) (clinical; whole blood, iv, 0.8 mg/m2) was 6.53 ng·h/mL, the Tmax (clinical; whole blood, iv, 0.8 mg/m2) was 8 min and the half-life (clinical; whole blood, iv, 0.8 mg/m2) was 7.27 ± 0.423 min. For the same compound, the Tmax (clinical; whole blood, iv, […]2) was 15.5 min, the Vd (clinical; whole blood, iv, […]2) was 54.4 ± 10.6 L and the half-life (clinical; whole blood, iv, […]2) was 8.2 ± 0.8 min.

For bevacizumab [reference compound], the “6 Months PFS, all patients” value (recurrent glioma; [8]) is listed as 16%, the “6 Months PFS, uMGMT Promoter” value (recurrent glioma; [8]) is listed as 8% and the “6 mo PFS, All” value (recurrent glioma; [9]) is listed as 16%. The “6 mo PFS, uMGMT Promoter” value (recurrent glioma; [9]) was 8%, the “6 mo OS” value (recurrent glioma; Field (CABARET), All Pts) was 61% and the “6 mo PFS” value (recurrent glioma; Field (CABARET), All Pts) was 18%. The “9 mo OS” value (recurrent glioma; Field (CABARET), All Pts) was 39%, the “9 mo PFS” value (recurrent glioma; Field (CABARET), All Pts) was 6% and the “6 mo Overall Survival, All Pts” value (recurrent glioma; Field (CABARET)) was 61%. The “6 mo Progression Free Survival, All Pts” value (recurrent glioma; Field (CABARET)) was 18%, the “9 mo Overall Survival, All Pts” value (recurrent glioma; Field (CABARET)) was 39% and the “9 mo Progression Free Survival, All Pts” value (recurrent glioma; Field (CABARET)) was 6%. For the same compound, the “12 Mo. Overall Survival, All Pts” value (recurrent glioma; Field (CABARET)) was 24%, the “6 mo OS” value (recurrent glioma; [10]) was 18% and the “9 mo OS” value (recurrent glioma; [10]) was 30%. The “9 mo PFS” value (recurrent glioma; [10]) was 0%, the “6 mo OS” value (recurrent glioma; [11]) was 58% and the “6 mo PFS” value (recurrent glioma; [11]) was 38%. For the same compound, the “9 mo OS” value (recurrent glioma; [11]) was 40%, the “9 mo PFS” value (recurrent glioma; [11]) was 22% and the “6 mo OS” value (recurrent glioma; [12]) was 25%. For the same compound, the “6 mo PFS” value (recurrent glioma; [12]) was 10%, the “9 mo PFS” value (recurrent glioma; [12]) was 0% and the “6 mo Overall Survival, All Pts” value (recurrent glioma; Heiland (Freiburg, Germany)) was 18%. For the same compound, the “6 mo Overall Survival, Methylated” value (recurrent glioma; Heiland (Freiburg, Germany)) was 58%, the “6 mo Overall Survival, Unmethylated” value (recurrent glioma; Heiland (Freiburg, Germany)) was 25% and the “6 mo Progression Free Survival, Methylated” value (recurrent glioma; Heiland (Freiburg, Germany)) was 38%. The “6 mo Progression Free Survival, Unmethylated” value (recurrent glioma; Heiland (Freiburg, Germany)) was 10%, the “9 mo Overall Survival, All Pts” value (recurrent glioma; Heiland (Freiburg, Germany)) was 30% and the “9 mo Overall Survival, Methylated” value (recurrent glioma; Heiland (Freiburg, Germany)) was 40%. The “9 mo Progression Free Survival, All Pts” value (recurrent glioma; Heiland (Freiburg, Germany)) was 0%, the “9 mo Progression Free Survival, Methylated” value (recurrent glioma; Heiland (Freiburg, Germany)) was 22% and the “9 mo Progression Free Survival, Unmethylated” value (recurrent glioma; Heiland (Freiburg, Germany)) was 0%. For the same compound, the “12 Mo. Overall Survival, All Pts” value (recurrent glioma; Heiland (Freiburg, Germany)) was 10%, the “12 Mo. Overall Survival, Methylated” value (recurrent glioma; Heiland (Freiburg, Germany)) was 24% and the “12 Mo. Progression Free Survival, All Pts” value (recurrent glioma; Heiland (Freiburg, Germany)) was 0%. For the same compound, the “12 Mo. Progression Free Survival, Methylated” value (recurrent glioma; Heiland (Freiburg, Germany)) was 10%, the “12 Mo. Progression Free Survival, Unmethylated” value (recurrent glioma; Heiland (Freiburg, Germany)) was 0% and the “6 mo OS” value (recurrent glioma; Taal (BELOB), All Pts) was 62%. For the same compound, the “6 mo PFS” value (recurrent glioma; Taal (BELOB), All Pts) was 16%, the “9 mo OS” value (recurrent glioma; Taal (BELOB), All Pts) was 45% and the “9 mo PFS” value (recurrent glioma; Taal (BELOB), All Pts) was 8%. The “6 mo OS” value (recurrent glioma; Taal (BELOB), Methylated) was 83%, the “6 mo PFS” value (recurrent glioma; Taal (BELOB), Methylated) was 33% and the “9 mo OS” value (recurrent glioma; Taal (BELOB), Methylated) was 67%. The “9 mo PFS” value (recurrent glioma; Taal (BELOB), Methylated) was 22%, the “6 mo OS” value (recurrent glioma; [13]) was 50% and the “6 mo PFS” value (recurrent glioma; [13]) was 8%. For the same compound, the “9 mo PFS” value (recurrent glioma; [13]) was 0%, the “6 mo Overall Survival, All Pts” value (recurrent glioma; Taal (BELOB)) was 62% and the “6 mo Overall Survival, Methylated” value (recurrent glioma; Taal (BELOB)) was 83%. For the same compound, the “6 mo Overall Survival, Unmethylated” value (recurrent glioma; Taal (BELOB)) was 50%, the “6 mo Progression Free Survival, All Pts” value (recurrent glioma; Taal (BELOB)) was 16% and the “6 mo Progression Free Survival, Methylated” value (recurrent glioma; Taal (BELOB)) was 33%. For the same compound, the “6 mo Progression Free Survival, Unmethylated” value (recurrent glioma; Taal (BELOB)) was 8%, the “9 mo Overall Survival, All Pts” value (recurrent glioma; Taal (BELOB)) was 45% and the “9 mo Overall Survival, Methylated” value (recurrent glioma; Taal (BELOB)) was 67%. The “9 mo Progression Free Survival, Methylated” value (recurrent glioma; Taal (BELOB)) was 22%, the “9 mo Progression Free Survival, Unmethylated” value (recurrent glioma; Taal (BELOB)) was 0% and the “12 Mo. Overall Survival, All Pts” value (recurrent glioma; Taal (BELOB)) was 26%. For the same compound, the “12 Mo. Overall Survival, Methylated” value (recurrent glioma; Taal (BELOB)) was 56%, the “12 Mo. Overall Survival, Unmethylated” value (recurrent glioma; Taal (BELOB)) was 8% and the “12 Mo. Progression Free Survival, Unmethylated” value (recurrent glioma; Taal (BELOB)) was 0%. The “6 mo PFS” value (recurrent glioma; Wick (EORTC 26101 P2), All Pts) was 14%, the “9 mo PFS” value (recurrent glioma; Wick (EORTC 26101 P2), All Pts) was 9% and the “6 mo PFS” value (recurrent glioma; [14]) was 25%. The “9 mo PFS” value (recurrent glioma; [14]) was 9%, the “6 mo PFS” value (recurrent glioma; [15]) was 10% and the “9 mo PFS” value (recurrent glioma; [15]) was 10%. The “6 mo Progression Free Survival, All Pts” value (recurrent glioma; Wick (EORTC 26101 P2)) was 14%, the “6 mo Progression Free Survival, Methylated” value (recurrent glioma; Wick (EORTC 26101 P2)) was 25% and the “6 mo Progression Free Survival, Unmethylated” value (recurrent glioma; Wick (EORTC 26101 P2)) was 10%. For the same compound, the “9 mo Progression Free Survival, All Pts” value (recurrent glioma; Wick (EORTC 26101 P2)) was 9%, the “9 mo Progression Free Survival, Methylated” value (recurrent glioma; Wick (EORTC 26101 P2)) was 9% and the “9 mo Progression Free Survival, Unmethylated” value (recurrent glioma; Wick (EORTC 26101 P2)) was 10%. For the same compound, the “12 Mo. Progression Free Survival, All Pts” value (recurrent glioma; Wick (EORTC 26101 P2)) was 8%, the “12 Mo. Progression Free Survival, Methylated” value (recurrent glioma; Wick (EORTC 26101 P2)) was 9% and the “12 Mo. Progression Free Survival, Unmethylated” value (recurrent glioma; Wick (EORTC 26101 P2)) was 10%. The “6-month progression-free survival (PFS) rate” value (recurrent glioma; recurrent G4 MG) was about 43% and the “median overall survival (OS)” value (recurrent glioma; recurrent G4 MG) was about 9 months.
